{"source": "paper PMC8353398", "about": "(Frontiers in Pharmacology, 2021)", "key": {"[1]": {"tested_on": "spontaneously hypertensive rats (SHR)", "assay": "Invasive hemodynamics and echocardiography after 6-week infusion in SHR rats", "conditions": "for Diastolic AP / Mean AP / Systolic AP: pressure catheter", "procedure": "Male spontaneously hypertensive rats (SHR) and normotensive Wistar-Kyoto (WKY) rats were purchased from Charles River Laboratories (Kingston, ON, Canada) and maintained in a temperature-controlled room with a 12 h light/dark cycle at the animal facility of the Université de Sherbrooke. All animals were randomized with unique identification number into the different groups tested to maintain experimenter blinding. The study included six distinct SHR experimental groups (Table 1). Three groups received a standard rat chow diet containing 0.3% of NaCl (Charles River, ON, Canada) while the other three groups were fed a rat diet containing 8% of NaCl for 6 weeks (Research Diets, NJ, United States). Once a week, urine output and water intake were measured over 24 h using metabolic cages following 3 days of acclimatization. After 6 weeks of different salt intake regimens, the rats were anesthetized with 2% isoflurane for echocardiographic and hemodynamic measurements. Subsequently, blood samples were collected into tubes containing K2-EDTA and centrifuged at 2000 g for 10 min at 4°C before storing the plasma at −80°C. Plasma and urinary concentrations of sodium were determined by a vitros 750 XRC analyser (Johnson-Johnson Clinical Diagnostics; Rochester, NY). OCT-embedded sections of heart (7 µm) were generated and collagen fibers visualized by Masson’s trichrome staining. Immunohistochemistry stained slides were captured by an automated Hamamatsu Nanozoomer 2.0RS slide scanner (Hamamatsu Photonics). Heart and kidneys were also harvested, snap frozen in liquid nitrogen and stored at −80°C for mRNA expression analysis. All animal procedures were approved by our institutional ethical committee (protocol #2017–2115), in compliance with the policies and directives of the Canadian Council on Animal Care and with the ARRIVE guidelines.\nBriefly, 2-chlorotrityl chloride resin (2-CTC, 120 mg) was loaded with Fmoc-L-Phe-OH (0.85 mmol/g). Fmoc protecting group was removed by treating the resin with a 20% piperidine solution. The coupling steps were carried out using [hexafluorophosphate of O-(7-azabenzotriazol-1-yl)-1,1,3,3-tetramethyluronium] (HATU, 5 equiv), amino acid (5 equiv) and DIPEA (5 equiv). The final peptide was cleaved from resin using a cocktail of trifluoroacetic acid (TFA)/triisopropylsilane (TIPS)/ethanedithiol (EDT)/water (92.5/2.5/2.5/2.5) and purified by preparative HPLC (ACE5 C18 column 250 × 21.2 mm, 5 μm spherical particle size). […] Finally, peptide was purified by preparative HPLC.\nTransthoracic echocardiography was performed under isoflurane anesthesia (2%; […]; Baxter) with the Vevo 3,100 ultrasound apparatus using a MX250 transducer (FUJIFILM VisualSonics, ON, Canada). A short axis view of the left ventricle (LV) was obtained at the level of the papillary muscle and the M-mode tracing was recorded. LV End-Diastolic and End-Systolic Diameters (LVEDD; LVESD) were measured in order to calculate the fractional shortening (FS). Stroke volume was next calculated in order to assess Cardiac Output (CO) and Cardiac Index (CI). Pulse propagation velocity (PPV) was determined by ultrasound measurements of the abdominal aorta using EKV-image acquisition and analyzed with Vevo-Vasc software (FUJIFILM VisualSonics, ON, Canada). For invasive hemodynamic measurements, rats were intubated under isoflurane anesthesia (2%; […]; Baxter, IL, United States) and ventilated (SAR-1000, CWE). The right carotid artery was then cannulated with a pressure catheter (1.9F, Transonic, NY, United States) and advanced into the LV to record end-systolic and end-diastolic pressures."}, "[2]": {"tested_on": "rACE", "assay": "Peptide stability, cleavage assay with purified rat ACE", "assay_type": "in vitro ADME", "conditions": "purified rat ACE (final around 82 nM), 5 µL of 1 mM peptide in about 105 µL; 100 mM Tris-HCl pH 7.4, 100 mM NaCl, 10 µM ZnCl2; 37°C, 300 rpm; sampled 5-120 min; UPLC-MS SIM; repeated 3-5 times", "procedure": "(§1) Rat enzymes rACE2 and rNEP were purchased from Sino Biological (Beijing, China) while rACE was obtained from EMD Millipore (Burlington, MA, United States). Enzymes were dissolved in milli-Q water (at 1 μM for rACE2/rNEP and 1.65 μM for rACE), aliquoted and stored at -80°C, as recommended by suppliers. […] Before adding the enzyme, the blank sample (t = 0 min) was prepared by removing 10 μL of this mixture and quenched with 10 μL of EDTA 0.5 M. To initiate the enzymatic reaction, 5 μL of enzyme (1 μM or 1.65 μM) was added to the mixture (final enzyme concentration around 50 nM or 82 nM). This mixture was kept in an incubator at 37°C equipped with an orbital shaker (300 rpm). Ten μL was sampled at 5, 10, 20, 60, and 120 min from this mixture, and quenched with 10 μL EDTA 0.5 M (prepared in milli-Q water and filtered) to inactivate the enzyme. […] First analyses (t = 0 min, t = 120 min) scanned m/z from 300-1200 to evaluate if peptides are cleaved and peptide fragments will be detected. After identifying the m/z of peptides and fragments, peptides were quantified using single ion mode (SIM). […] Angiotensin II was used as reference substrate in the assay with rACE2 and rNEP and angiotensin I was used as reference substrate in the assay with rACE. Experiments were repeated 3-5 times."}, "[3]": {"target": "T1, rACE2 (Rattus norvegicus, UniProt Q5EGZ1)", "T1 construct": "purchased Sino Biological (Beijing, China)", "T1 sequence (Q5EGZ1 18-805)": "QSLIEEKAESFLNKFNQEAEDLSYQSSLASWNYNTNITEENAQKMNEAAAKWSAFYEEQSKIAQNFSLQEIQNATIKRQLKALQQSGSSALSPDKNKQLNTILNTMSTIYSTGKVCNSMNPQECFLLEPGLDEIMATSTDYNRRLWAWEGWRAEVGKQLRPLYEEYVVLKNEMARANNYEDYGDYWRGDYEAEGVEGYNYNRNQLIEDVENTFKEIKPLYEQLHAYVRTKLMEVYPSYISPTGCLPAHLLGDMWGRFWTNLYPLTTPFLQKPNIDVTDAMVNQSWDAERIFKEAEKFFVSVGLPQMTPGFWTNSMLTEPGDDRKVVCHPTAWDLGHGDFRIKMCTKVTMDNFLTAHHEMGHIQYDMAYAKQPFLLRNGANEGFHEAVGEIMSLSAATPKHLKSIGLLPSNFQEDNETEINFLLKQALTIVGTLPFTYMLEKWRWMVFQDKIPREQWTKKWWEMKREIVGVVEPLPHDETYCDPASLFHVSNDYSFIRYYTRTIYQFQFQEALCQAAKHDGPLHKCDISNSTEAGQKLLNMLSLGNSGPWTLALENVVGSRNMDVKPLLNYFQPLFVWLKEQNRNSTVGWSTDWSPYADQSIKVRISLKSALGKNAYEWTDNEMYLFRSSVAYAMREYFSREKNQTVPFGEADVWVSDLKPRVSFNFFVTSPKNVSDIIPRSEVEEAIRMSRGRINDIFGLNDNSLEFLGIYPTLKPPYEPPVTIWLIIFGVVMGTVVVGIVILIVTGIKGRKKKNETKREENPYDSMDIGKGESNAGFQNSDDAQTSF", "assay": "Peptide stability, cleavage assay with purified rat ACE2", "assay_type": "in vitro ADME", "conditions": "purified rat ACE2 (final around 50 nM), 5 µL of 1 mM peptide in about 105 µL; 100 mM Tris-HCl pH 7.4, 100 mM NaCl, 10 µM ZnCl2; 37°C, 300 rpm; sampled 5-120 min; UPLC-MS SIM; repeated 3-5 times", "procedure": "as §1"}, "[4]": {"target": "T2, rNEP (Rattus norvegicus, UniProt P07861)", "T2 construct": "purchased Sino Biological (Beijing, China)", "T2 sequence (P07861 1-750)": "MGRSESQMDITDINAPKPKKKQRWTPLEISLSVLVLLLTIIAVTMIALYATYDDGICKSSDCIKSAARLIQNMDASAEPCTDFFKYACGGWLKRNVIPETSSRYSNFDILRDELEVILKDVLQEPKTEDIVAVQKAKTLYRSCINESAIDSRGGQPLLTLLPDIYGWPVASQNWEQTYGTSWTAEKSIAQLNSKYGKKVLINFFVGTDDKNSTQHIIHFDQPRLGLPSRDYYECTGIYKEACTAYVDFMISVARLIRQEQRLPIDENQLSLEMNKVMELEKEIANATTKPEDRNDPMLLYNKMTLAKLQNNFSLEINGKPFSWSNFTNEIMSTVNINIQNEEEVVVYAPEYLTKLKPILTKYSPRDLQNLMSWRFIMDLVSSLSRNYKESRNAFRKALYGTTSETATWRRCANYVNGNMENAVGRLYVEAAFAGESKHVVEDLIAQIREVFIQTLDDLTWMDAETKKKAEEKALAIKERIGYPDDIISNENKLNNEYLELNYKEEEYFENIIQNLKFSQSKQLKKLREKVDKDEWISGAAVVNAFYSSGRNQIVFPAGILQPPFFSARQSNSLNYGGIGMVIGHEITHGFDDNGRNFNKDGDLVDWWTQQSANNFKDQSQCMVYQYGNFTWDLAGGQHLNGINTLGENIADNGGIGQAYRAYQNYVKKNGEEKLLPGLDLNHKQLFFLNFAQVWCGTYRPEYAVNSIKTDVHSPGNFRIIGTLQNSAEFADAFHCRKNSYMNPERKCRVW", "assay": "Peptide stability, cleavage assay with purified rat neprilysin", "assay_type": "in vitro ADME", "conditions": "purified rat NEP (final around 50 nM), 5 µL of 1 mM peptide in about 105 µL; 100 mM Tris-HCl pH 7.4, 100 mM NaCl, 10 µM ZnCl2; 37°C, 300 rpm; sampled 5-120 min; UPLC-MS SIM; repeated 3-5 times", "procedure": "as §1"}, "[5]": {"tested_on": "spontaneously hypertensive rats (SHR)", "assay": "Quantitative RT-PCR of pro-fibrotic and RAAS genes in heart and kidneys of treated SHR rats", "assay_type": "in vivo, rat", "conditions": "high-salt diet, 10 nmol/kg/hr 6-week infusion, qRT-PCR, Rpl30 reporter", "procedure": "Total RNA was extracted from heart and kidneys using RNeasy Mini kits (Qiagen) according to the manufacturer’s protocol. iScript Reverse Transcription Supermix (Bio-Rad) was used to prepare cDNA from 1 µg of total RNA in 20 µL. Real-time PCR was performed on technical duplicates with cDNA diluted 30x in nuclease-free water and using SsoAdvanced™ Universal SYBR® Green Supermix (Bio-Rad) in a Mastercycler® ep RealPlex (Eppendorf). The Ribosomal protein L30 (Rpl30) of heart or kidney was used as a reporter gene and fold changes were obtained using the 2(-ΔΔCt) method ([Livak and Schmittgen, 2001]). Data were then normalized to SHR rats receiving a standard chow diet containing 0.3% of NaCl."}, "[6]": {"tested_on": "adult male Sprague-Dawley rats", "conditions": "cecal-ligation puncture sepsis, 10 nmol/kg/hr, ref Coquerel et al., 2017; cited from earlier work", "from_the_text": "The final peptide was cleaved fr ..."}, "[7]": {"conditions": "SHR, high-salt diet (8% NaCl), 10 nmol/kg/hr s.c. infusion 6 weeks, mean ± SEM, n = 6"}, "[8]": {"conditions": "SHR, high-salt diet, 10 nmol/kg/hr s.c. infusion 6 weeks, echocardiography, mean ± SEM, n = 6"}, "[9]": {"conditions": "SHR, normal-salt diet (0.3% NaCl), 10 nmol/kg/hr s.c. infusion 6 weeks, mean ± SEM, n = 5"}, "[10]": {"conditions": "SHR, normal-salt diet, 10 nmol/kg/hr s.c. infusion 6 weeks, echocardiography, mean ± SEM, n = 5"}}, "data": [{"molecule": "CSCC[C@H](NC(=O)[C@@H]1CCCN1C(=O)CNC(=O)[C@H](CCCCN)NC(=O)[C@H](Cc1cnc[nH]1)NC(=O)[C@H](CO)NC(=O)[C@H](CC(C)C)NC(=O)[C@H](CCCNC(=N)N)NC(=O)[C@@H]1CCCN1C(=O)[C@H](CCCNC(=N)N)NC(=O)[C@@H]1CCC(=O)N1)C(=O)N1CCC[C@H]1C(=O)N[C@@H](Cc1ccccc1)C(=O)O", "note": "[Ape13, [Pyr^1]-Apelin-13]", "values": [{"measurement": "Effect on cardiovascular damage caused by hypertension per se", "setting": "[1]; SHR on normal-salt intake compared to normotensive WKY, chronic treatment 6 weeks", "result": "does not prevent or reverse"}, {"measurement": "Effect on hypertension induced by a high-salt diet", "setting": "[1]; SHR, high-salt diet (8% NaCl), 10 nmol/kg/hr continuous 6-week infusion", "result": "no significant effect"}, {"measurement": "Weight", "setting": "[1]; [7]", "result": "339 ± 10", "unit": "g"}, {"measurement": "Diastolic AP", "setting": "[1]; [7]", "result": "131 ± 17", "unit": "mmHg"}, {"measurement": "Mean AP", "setting": "[1]; [7]", "result": "152 ± 19", "unit": "mmHg"}, {"measurement": "Systolic AP", "setting": "[1]; [7]", "result": "194 ± 23", "unit": "mmHg"}, {"measurement": "AWTS (anterior wall thickness during systole)", "setting": "[1]; [8]", "result": "2.4 ± 0.1", "unit": "mm"}, {"measurement": "FS (fractional shortening)", "setting": "[1]; [8]", "result": "37.6 ± 3.3", "unit": "%"}, {"measurement": "HR (heart rate)", "setting": "[1]; [8]", "result": "348 ± 12", "unit": "bpm"}, {"measurement": "LVEDD (left ventricular end diastolic diameter)", "setting": "[1]; [8]", "result": "7.2 ± 0.1", "unit": "mm"}, {"measurement": "LVESD (left ventricular end systolic diameter)", "setting": "[1]; [8]", "result": "4.5 ± 0.3", "unit": "mm"}, {"measurement": "PWTS (posterior wall thickness during systole)", "setting": "[1]; [8]", "result": "2.6 ± 0.1", "unit": "mm"}, {"measurement": "Weight", "setting": "[1]; [9]", "result": "321 ± 5", "unit": "g"}, {"measurement": "Diastolic AP", "setting": "[1]; [9]", "result": "125 ± 12", "unit": "mmHg"}, {"measurement": "Mean AP", "setting": "[1]; [9]", "result": "143 ± 14", "unit": "mmHg"}, {"measurement": "Systolic AP", "setting": "[1]; [9]", "result": "179 ± 19", "unit": "mmHg"}, {"measurement": "APPV (aortic pulse propagation velocity)", "setting": "[1]; [10]", "result": "4.5 ± 0.4", "unit": "m/s"}, {"measurement": "AWTS (anterior wall thickness during systole)", "setting": "[1]; [10]", "result": "2.3 ± 0.1", "unit": "mm"}, {"measurement": "FS (fractional shortening)", "setting": "[1]; [10]", "result": "39.8 ± 1.1", "unit": "%"}, {"measurement": "HR (heart rate)", "setting": "[1]; [10]", "result": "372 ± 4", "unit": "bpm"}, {"measurement": "LVEDD (left ventricular end diastolic diameter)", "setting": "[1]; [10]", "result": "6.3 ± 0.4", "unit": "mm"}, {"measurement": "LVESD (left ventricular end systolic diameter)", "setting": "[1]; [10]", "result": "3.8 ± 0.3", "unit": "mm"}, {"measurement": "PWTS (posterior wall thickness during systole)", "setting": "[1]; [10]", "result": "2.3 ± 0.1", "unit": "mm"}, {"measurement": "Cleavage by ACE within 2 h", "setting": "[2]", "result": "only partially"}, {"measurement": "Cleavage by ACE2 within 2 h", "setting": "[3]", "result": "rapidly and fully hydrolyzed"}, {"measurement": "Cleavage by neprilysin within 2 h", "setting": "[4]", "result": "rapidly and fully hydrolyzed"}, {"measurement": "Expression of pro-fibrotic Col1a, Acta1 and Tgfb2 genes in kidneys", "setting": "[5]", "result": "only reduced the Tgfb2 mRNA level"}, {"measurement": "Survival", "setting": "[6]", "result": "improved the survival"}]}]}
